In patent US8420657B2 (Novartis AG, priority 2008, dated 2013):

Tests used:
GST-JAK2(808-1132) = target: T1, GST-JAK2(808-1132) (Homo sapiens, UniProt O60674); test: JAK2 kinase assay (Caliper mobility shift, LabChip 3000); format: biochemical
T1 construct: GST-JAK2(808-1132); purchased Invitrogen (Carlsbad, USA) #4288
How it was run: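 Eight-point compound series (final 10–0.003 μM) tested on purchased GST-JAK2 kinase domain (808-1132). Peptide FITC-JAK3tide plus ATP reacted 60 min, 30 °C, then quenched with EDTA; turnover from charge-based separation of substrate and product.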

[1] = system: JAK1/JAK2-dependent nuclear translocation of STAT1-GFP in HT1080 fibrosarcoma cells; test: STAT1 nuclear translocation assay (Cellomics), IFN-γ stimulated HT1080 STAT1-GFP cells; format: cell-based; conditions: Homo sapiens, HT-1080, STAT1 translocation pathway
How it was run: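 IC50 derived from percent nuclear STAT1-GFP translocation, computed from nuclear minus cytoplasmic GFP intensity against untreated baseline and DMSO-stimulated control. Stable HT1080 STAT1-GFP cells received compound (0.003–10 μM, 0.1% DMSO) 30 min ahead of a 2 h 100 ng/ml IFN-γ stimulus, then fixation and Hoechst nuclear masking.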

T1 sequence (O60674 808-1132): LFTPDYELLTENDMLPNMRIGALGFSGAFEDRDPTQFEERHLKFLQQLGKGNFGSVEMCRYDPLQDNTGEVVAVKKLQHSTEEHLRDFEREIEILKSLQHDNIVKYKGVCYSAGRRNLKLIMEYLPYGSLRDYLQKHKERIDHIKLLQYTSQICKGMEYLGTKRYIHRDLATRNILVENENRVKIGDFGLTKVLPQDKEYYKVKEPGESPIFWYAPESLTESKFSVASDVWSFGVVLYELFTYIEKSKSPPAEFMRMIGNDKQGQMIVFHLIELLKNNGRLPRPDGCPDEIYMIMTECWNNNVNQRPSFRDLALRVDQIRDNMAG

N#Cc1ccc(Nc2ncc3ccn(-c4cc(F)c(CN5CCOCC5)c(F)c4)c3n2)cc1 [Example 136, 4-[7-(3,5-Difluoro-4-morpholin-4-ylmethyl-phenyl)-7H-pyrrolo[2,3-d]pyrimidin-2-ylamino]-benzonitrile]
IC50 (GST-JAK2(808-1132)): 0.011 µM
IC50 [1]: 0.775 µM

CCN1CCN(C(=O)C2(c3ccc(-n4ccc5cnc(Nc6ccc(C)c(C)c6)nc54)cc3)CC2)CC1 [Example 159, (1-{4-[2-(3,4-Dimethyl-phenylamino)-pyrrolo[2,3-d]pyrimidin-7-yl]-phenyl}-cyclopropyl)-(4-ethyl-piperazin-1-yl)-methanone]
IC50 (GST-JAK2(808-1132)): 0.0465 µM
IC50 [1]: 1.12 µM

O=C(c1ccc(Nc2ncc3ccn(-c4cc(F)c(CN5CCOCC5)c(F)c4)c3n2)cc1)N1CCOCC1 [Example 138, {4-[7-(3,5-Difluoro-4-morpholin-4-ylmethyl-phenyl)-7H-pyrrolo[2,3-d]pyrimidin-2-ylamino]-phenyl}-morpholin-4-yl-methanone]
IC50 (GST-JAK2(808-1132)): < 0.003 µM
IC50 [1]: 0.165 µM

COc1ccc(Nc2ncc3ccn(-c4ccc(C(=O)N5CCS(=O)(=O)CC5)cc4)c3n2)cn1 [Example 250, (1,1-Dioxido-thiomorpholin-4-yl)-{4-[2-(6-methoxy-pyridin-3-ylamino)-pyrrolo[2,3-d]pyrimidin-7-yl]-phenyl}-methanone]
IC50 (GST-JAK2(808-1132)): 0.0091 µM
IC50 [1]: 0.94 µM

CN1CCN(Cc2ccc(Nc3ncc4ccn(-c5cc(F)c(CN6CCOCC6)c(F)c5)c4n3)cc2)CC1 [Example 173, [7-(3,5-Difluoro-4-morpholin-4-ylmethyl-phenyl)-7H-pyrrolo[2,3-d]pyrimidin-2-yl]-[4-(4-methyl-piperazin-1-ylmethyl)-phenyl]-amine]
IC50 (GST-JAK2(808-1132)): 0.0055 µM
IC50 [1]: 0.235 µM

CC(C)Oc1ccc(Nc2ncc3ccn(-c4cc(F)c(C(=O)N5CCOCC5)c(F)c4)c3n2)cc1 [Example 82, {2,6-Difluoro-4-[2-(4-isopropoxy-phenylamino)-pyrrolo[2,3-d]pyrimidin-7-yl]-phenyl}-morpholin-4-yl-methanone]
IC50 (GST-JAK2(808-1132)): 0.0041 µM
IC50 [1]: 0.86 µM

CN1CCN(C(=O)c2ccc(Nc3ncc4ccn(-c5cc(F)c(CN6CCOCC6)c(F)c5)c4n3)cc2)CC1 [Example 2, {4-[7-(3,5-Difluoro-4-morpholin-4-ylmethyl-phenyl)-7H-pyrrolo[2,3-d]pyrimidin-2-ylamino]-phenyl}-(4-methyl-piperazin-1-yl)-methanone]
IC50 (GST-JAK2(808-1132)): 0.0032 µM
IC50 [1]: 0.19 µM

CCOc1ccc(Nc2ncc3ccn(-c4ccc(CN5CCOCC5)c(Cl)c4)c3n2)cc1OCC [Example 177, [7-(3-Chloro-4-morpholin-4-ylmethyl-phenyl)-7H-pyrrolo[2,3-d]pyrimidin-2-yl]-(3,4-diethoxy-phenyl)-amine]
IC50 (GST-JAK2(808-1132)): 0.0053 µM
IC50 [1]: 1.03 µM

O=C(c1c(F)cc(-n2ccc3cnc(Nc4ccccc4)nc32)cc1F)N1CCOCC1 [Example 214, [2,6-Difluoro-4-(2-phenylamino-pyrrolo[2,3-d]pyrimidin-7-yl)-phenyl]-morpholin-4-yl-methanone]
IC50 (GST-JAK2(808-1132)): 0.0051 µM
IC50 [1]: 0.643 µM

CS(=O)(=O)c1ccc(-n2ccc3cnc(Nc4ccc(CN5CCS(=O)(=O)CC5)cc4)nc32)cc1 [Example 64, [4-(1,1-Dioxido-thiomorpholin-4-ylmethyl)-phenyl]-[7-(4-methanesulfonyl-phenyl)-7H-pyrrolo[2,3-d]pyrimidin-2-yl]-amine]
IC50 (GST-JAK2(808-1132)): < 0.003 µM
IC50 [1]: 0.04 µM

COc1ccc(Nc2ncc3ccn(-c4ccc(C(=O)NC(C)(C)C)cc4)c3n2)cc1OC [Example 7, N-tert-Butyl-4-[2-(3,4-dimethoxy-phenylamino)-pyrrolo[2,3-d]pyrimidin-7-yl]-benzamide]
IC50 (GST-JAK2(808-1132)): 0.0062 µM
IC50 [1]: 0.255 µM

O=C1CN(Cc2ccc(Nc3ncc4ccn(-c5cc(F)c(CN6CCOCC6)c(F)c5)c4n3)cc2)CCN1 [Example 258, 4-{4-[7-(3,5-Difluoro-4-morpholin-4-ylmethyl-phenyl)-7H-pyrrolo[2,3-d]pyrimidin-2-ylamino]-benzyl}-piperazin-2-one]
IC50 (GST-JAK2(808-1132)): < 0.003 µM
IC50 [1]: 0.08 µM

CS(=O)(=O)c1ccc(-n2ccc3cnc(Nc4ccc(F)c(C(F)(F)F)c4)nc32)cc1 [Example 80, (4-Fluoro-3-trifluoromethyl-phenyl)-[7-(4-methanesulfonyl-phenyl)-7H-pyrrolo[2,3-d]pyrimidin-2-yl]-amine]
IC50 (GST-JAK2(808-1132)): 0.43 µM
IC50 [1]: 10 µM

Cc1cc(Nc2ncc3ccn(-c4cc(F)c(CN5CCS(=O)(=O)CC5)c(F)c4)c3n2)ccc1F [Example 137, {7-[4-(1,1-Dioxido-thiomorpholin-4-ylmethyl)-3,5-difluoro-phenyl]-7H-pyrrolo[2,3-d]pyrimidin-2-yl}-(4-fluoro-3-methyl-phenyl)-amin]
IC50 (GST-JAK2(808-1132)): 0.0033 µM
IC50 [1]: 0.15 µM

CN1CCN(Cc2ccc(Nc3ncc4ccn(-c5ccc(S(C)(=O)=O)c(F)c5)c4n3)cc2)CC1 [Example 244, [7-(3-Fluoro-4-methanesulfonyl-phenyl)-7H-pyrrolo[2,3-d]pyrimidin-2-yl]-[4-(4-methyl-piperazin-1-ylmethyl)-phenyl]-amine]
IC50 (GST-JAK2(808-1132)): < 0.003 µM
IC50 [1]: 0.43 µM

C[C@@H]1CN(Cc2ccc(Nc3ncc4ccn(-c5cc(F)c(C(=O)N6CCOCC6)c(F)c5)c4n3)cc2)C[C@H](C)N1 [Example 255, (4-{2-[4-(cis-3,5-Dimethyl-piperazin-1-ylmethyl)-phenylamino]-pyrrolo[2,3-d]pyrimidin-7-yl}-2,6-difluoro-phenyl)-morpholin-4-yl-methanone]
IC50 (GST-JAK2(808-1132)): 0.0069 µM
IC50 [1]: 0.115 µM

O=S1(=O)CCN(Cc2c(F)cc(-n3ccc4cnc(Nc5ccccn5)nc43)cc2F)CC1 [Example 181, {7-[4-(1,1-Dioxido-thiomorpholin-4-ylmethyl)-3,5-difluoro-phenyl]-7H-pyrrolo[2,3-d]pyrimidin-2-yl}-pyridin-2-yl-amine]
IC50 (GST-JAK2(808-1132)): 0.0155 µM
IC50 [1]: 16.6 µM

COc1ccc(Nc2ncc3ccn(-c4ccc(S(C)(=O)=O)cc4)c3n2)cc1OCCN1CCCC1 [Example 31, [7-(4-Methanesulfonyl-phenyl)-7H-pyrrolo[2,3-d]pyrimidin-2-yl]-[4-methoxy-3-(2-pyrrolidin-1-yl-ethoxy)-phenyl]-amine]
IC50 (GST-JAK2(808-1132)): < 0.003 µM
IC50 [1]: 0.046 µM

CS(=O)(=O)c1ccc(-n2ccc3cnc(Nc4ccc(Cn5ccnc5)cc4)nc32)cc1 [Example 43, (4-Imidazol-1-ylmethyl-phenyl)-[7-(4-methanesulfonyl-phenyl)-7H-pyrrolo[2,3-d]pyrimidin-2-yl]-amine]
IC50 (GST-JAK2(808-1132)): < 0.003 µM
IC50 [1]: 0.35 µM

CC(C)Oc1ccc(Nc2ncc3ccn(-c4ccc(CN5CCCC5)cc4)c3n2)cc1 [Example 107, (4-Isopropoxy-phenyl)-[7-(4-pyrrolidin-1-ylmethyl-phenyl)-7H-pyrrolo[2,3-d]pyrimidin-2-yl]-amine]
IC50 (GST-JAK2(808-1132)): 0.0081 µM
IC50 [1]: 1.83 µM

Cc1cc(Nc2ncc3ccn(-c4ccc(S(C)(=O)=O)cc4)c3n2)ccc1C(=O)N1CCN(C)CC1 [Example 73, {4-[7-(4-Methanesulfonyl-phenyl)-7H-pyrrolo[2,3-d]pyrimidin-2-ylamino]-2-methyl-phenyl}-(4-methyl-piperazin-1-yl)-methanone]
IC50 (GST-JAK2(808-1132)): < 0.003 µM
IC50 [1]: 0.0805 µM

CC(=O)N1CCN(Cc2ccc(Nc3ncc4ccn(-c5ccc(C(=O)N6CCOCC6)cc5)c4n3)cc2)CC1 [Example 338, 1-[4-(4-{7-[4-(Morpholine-4-carbonyl)-phenyl]-7H-pyrrolo[2,3-d]pyrimidin-2-ylamino}-benzyl)-piperazin-1-yl]-ethanone]
IC50 (GST-JAK2(808-1132)): 0.0039 µM
IC50 [1]: 0.135 µM
